Article PMC6977399 (Clinical Pharmacology and Therapeutics, 2019)
Where two headings read alike, the source gives them in different places.

Assays:
[1] = cited from earlier work
[2] = both, human, plasma, oral, 2 mg
[3] = test system: CYP3A
[4] = test system: OATP1B and BCRP; conditions: clinical DDI study; cited from earlier work
[5] = test system: BCRP and OATP1B; experiment: Clinical DDI study part 2: effect of fenebrutinib on PK of rosuvastatin; conditions: both, human, plasma, oral
[6] = as above; conditions: both, human, plasma, oral, 20 mg
[7] = Literature estimates of intestinal availability; parameters: species or system human; conditions: translated from FaFg 0.28
[8] = test system: CYP3A; conditions: in the presence of fluconazole and voriconazole; cited from earlier work
[9] = MDZ coadministered with fenebrutinib 200 mg b.i.d. vs MDZ alone
[10] = both, human, plasma, oral, 2 mg

SMILES: Cc1ncc2n1-c1ccc(Cl)cc1C(c1ccccc1F)=NC2 [MDZ, midazolam]
- intestinal availability (FaFg) [1]: 48%
- Cmax [2]: 8.54 ng/mL
- half-life [2]: 6.23 h
- AUC0−t, fold higher with fenebrutinib vs alone [3, 9]: ~ 1.99 fold
- Cmax, fold higher with fenebrutinib vs alone [3, 9]: ~ 1.74 fold
- half-life ([3]; both, human, plasma, oral): 6.68 h
- AUC(0-inf) [3, 10]: 20.5 ng·h/mL
- AUC(0-t) [3, 10]: 19.2 ng·h/mL

SMILES: CC(C)c1nc(N(C)S(C)(=O)=O)nc(-c2ccc(F)cc2)c1/C=C/[C@@H](O)C[C@@H](O)CC(=O)O [Rosuvastatin, rosuvastatin]
- FaFg ([1]; estimated, ref Tanaka et al.23): 0.28
- exposure increase in the presence of eltrombopag [4]: 55%
- half-life [5]: 18.2 h
- AUC(0-t) ([5]; 20 mg): 91 ng·h/mL
- AUC(0-inf) [6]: 93 ng·h/mL
- Cmax [6]: 9.08 ng/mL
- half-life [6]: 19.9 h
- maximum AUC increase if FaFg increased to 1 with intestinal BCRP inhibition [7]: 3.6 fold

SMILES: OCc1ncc2n1-c1ccc(Cl)cc1C(c1ccccc1F)=NC2 [1′‐hydroxymidazolam]
- exposure increase in the presence of other CYP3A inhibitors [8]: ~ 1.5 fold
